The source of these data is US11261498B2, “Methods for diagnosing and treating cancer” (priority 2011, dated 2022).

The structures appear in SMILES notation.

For one test, the system named is NSCLC cell lines. The test is described as follows: Erlotinib sensitivity (IC50, Celltiter-Glo cell viability) of NSCLC cell lines versus ERBB2 methylation. Type of test: cell-based. The note with it: in vitro, 72 hrs, 3 nM TGFα, IC50 values only in FIG. 5. As for the experimental part: After 72 hrs, cell viability was measured using the Celltiter-Glo Luminescent Cell Viability Assay (Promega).

For test [1], the system named is advanced, treatment-refractory NSCLC. The note with it: phase III, monotherapy, patients with advanced; cited from earlier work.
For a further test, the system named is NSCLC. The note with it: phase III, first-line, in combination with standard chemotherapy; cited from earlier work.
Another test has as its system pancreatic cancer. Particulars: phase III, first-line, in combination with gemcitabine; cited from earlier work.

For `C#Cc1cccc(Nc2ncnc3cc(OCCOC)c(OCCOC)cc23)c1` [erlotinib, [6,7-bis(2-methoxyethoxy)-4-quinazolin-4-yl]-(3-ethynylphenyl) amine], the “correlation of ERBB2 hypomethylation with erlotinib sensitivity” value in the test on NSCLC cell lines is on record as “strongly correlated”. Moreover, in test [1], the disease progression result is “delayed disease progression”, the survival entry is listed as “significantly prolonged survival” and the “worsening of lung cancer-related symptoms” value is “delayed worsening of lung cancer-related symptoms”. Also, in the test on NSCLC, the survival result is reported as “did not improve survival”. Besides, in the test on pancreatic cancer, the survival entry was “did improve survival”.

Turning to `COc1cc2ncnc(Nc3ccc(F)c(Cl)c3)c2cc1OCCCN1CCOCC1` [gefitinib], in the test on NSCLC, the survival result is recorded as “did not improve survival”.
